# From patent US6369088B2, “Substituted 3-phenyl-5-alkoxy-1,3,4-oxadiazol-2-ones, their preparation and their use as pharmaceuticals” (Aventis Pharma Deutschland GmbH, priority 2000, dated 2002)
# Columns and labels:
# [1] = biological target: T1, hormone-sensitive lipase (HSL) (Rattus norvegicus, UniProt P15304); assay: HSL enzyme assay: [3H]trioleoylglycerol hydrolysis by partially purified HSL; format: biochemical; details: partially purified HSL from rat fat cells; [3H]trioleoylglycerol substrate; 37° C., 30 min; read-out: IC50
# T1 construct: Isolated rat fat cells were obtained from epididymal adipose tissue; from tissue; host or cells: rat epididymal adipose tissue (isolated fat cells, Wistar rats)
# T1 sequence (P15304 1-768 isoform P15304-2): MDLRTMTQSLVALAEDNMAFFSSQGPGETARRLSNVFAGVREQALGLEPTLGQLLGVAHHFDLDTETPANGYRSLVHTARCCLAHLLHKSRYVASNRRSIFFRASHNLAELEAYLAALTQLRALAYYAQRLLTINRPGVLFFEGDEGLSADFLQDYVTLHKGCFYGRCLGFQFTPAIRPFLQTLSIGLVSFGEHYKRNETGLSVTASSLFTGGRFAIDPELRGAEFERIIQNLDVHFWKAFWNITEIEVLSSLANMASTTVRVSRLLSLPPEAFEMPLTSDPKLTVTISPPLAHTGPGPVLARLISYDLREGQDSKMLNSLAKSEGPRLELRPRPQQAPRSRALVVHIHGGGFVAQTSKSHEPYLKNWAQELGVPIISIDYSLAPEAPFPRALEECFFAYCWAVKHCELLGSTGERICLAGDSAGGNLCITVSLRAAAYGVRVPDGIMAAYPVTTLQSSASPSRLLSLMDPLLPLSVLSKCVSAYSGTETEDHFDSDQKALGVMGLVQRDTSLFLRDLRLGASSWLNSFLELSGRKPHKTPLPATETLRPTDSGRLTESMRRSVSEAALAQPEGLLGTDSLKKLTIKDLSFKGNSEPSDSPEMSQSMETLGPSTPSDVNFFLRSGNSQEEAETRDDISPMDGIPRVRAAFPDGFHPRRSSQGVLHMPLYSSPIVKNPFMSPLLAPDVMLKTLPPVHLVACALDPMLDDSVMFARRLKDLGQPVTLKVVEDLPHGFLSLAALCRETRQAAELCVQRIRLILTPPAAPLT
# Method: The effect of the compounds of the invention on HSL was tested using the following enzyme assay system:
# Preparation of Partially Purified HSL:
# The fat cells from 10 rats were washed three times by flotation with 50 ml each time of homogenization buffer ([…] tris/HCl, pH 7.4, 0.25 M sucrose, 1 mM EDTA, 1 mM DTT, 10 μg/ml leupeptin, 10 μg/ml antipain, 20 μg/ml pepstatin) and finally taken up in 10 ml of homogenization buffer. The fat cells were homogenized in a Teflon-in-glass homogenizer (Braun-Melsungen) by 10 strokes at 1500 rpm and 15° C. The homogenate was centrifuged (Sorvall SM24 tubes, 5000 rpm, 10 min, 4° C.). The subnatant between the fatty layer at the top and the pellet was removed and the centrifugation was repeated. The subnatant resulting therefrom was recentrifuged (Sorvall SM24 tubes, 20000 rpm, 45 min, 4° C.). […] After the mixture had been incubated at 4° C. for 60 min (shaking at 15-min intervals), it was centrifuged (Sorvall SM24 tubes, 3000 rpm, 10 min, 4° C.). The supernatant was adjusted to pH 5.2 by adding glacial acetic acid and incubated at 4° C. for 30 min. The precipitates were collected by centrifugation (Sorvall SS34, 12000 rpm, 10 min, 4° C.) and suspended in 2.5 ml of 20 mM tris/HCl, pH 7.0,1 mM EDTA, 65 mM NaCl, 13% sucrose, 1 mM DTT, 10 μg/ml leupeptin/pepstatin/antipain. The suspension was dialyzed against 25 mM tris/HCl, pH 7.4, 50% glycerol, 1 mM DTT, 10 μg/ml leupeptin, pepstatin, antipain at 4° C. overnight and then loaded onto a hydroxy apatite column (0.1 g per 1 ml of suspension, equilibrated with 10 mM potassium phosphate, pH 7.0, 30% glycerol, 1 mM DTT). The column was washed with four volumes of equilibration buffer at a flow rate of 20 to 30 ml/h. The HSL was eluted with one volume of equilibration buffer containing 0.5 M potassium phosphate, and then dialyzed (see above) and concentrated 5- to 10-fold by ultrafiltration (Amicon Diaflo PM 10 filter) at 4° C. The partially purified HSL can be stored at −70° C. for 4 to 6 weeks.
# To prepare the substrate, 25-50 μCi of [^3H]trioleoylglycerol (in toluene), 6.8 μmol of unlabeled trioleoylglycerol and 0.6 mg of phospholipids (phosphatidylcholine/phosphatidylinositol 3:1 w/v) were mixed, dried with N2 and then taken up in 2 ml of 0.1 M KPi (pH 7.0) by ultrasonic treatment (Branson 250, microtip, setting 1-2, 2×1 min at 1-min intervals). After addition of 1 ml of KPi and renewed ultrasonic treatment (4×30 sec on ice in 30-sec intervals), 1 ml of 20% BSA (in KPi) was added (final concentration of trioleoylglycerol 1.7 mM). For the reaction, 100 μl of substrate solution were pipetted into 100 μl of HSL solution (HSL prepared as above, diluted in 20 mM KPi, pH 7.0, 1 mM EDTA, 1 mM DTT, 0.02% BSA, 20 μg/ml pepstatin, 10 μg/ml leupeptin) and incubated at 37° C. for 30 min. […] After phase separation, one equivalent of the upper phase (1 ml) was removed and the radioactivity was determined by liquid scintillation measurement.
# Substances were normally tested in four independent mixtures. The inhibition of the HSL enzymatic activity by a test substance was determined by comparison with an uninhibited control reaction. The IC50 was calculated via an inhibition plot with at least 10 concentrations of the test substance. The data was analyzed using the software package GRAPHIT, Elsevier-BIOSOFT.
melting point [°C],IC50 [1] [µM],Compound
210,1,"COc1nn(-c2ccc(NC(=O)Nc3ccc(Cl)c(Cl)c3)c(C)c2)c(=O)o1 [Example 42, 5-Methoxy-3-(4-(3,4-dichlorophenylaminocarbonylamino)-3-methylphenyl)-3H-(1,3,4)oxadiazol-2-one]"
143,1,"COc1nn(-c2ccc(NC(C)=CC(C)=O)c(C)c2)c(=O)o1 [Example 53, 5-Methoxy-3-(4-(4-oxopent-2-en-2-ylamino)-3-methylphenyl)-3H-(1,3,4)oxadiazol-2-one]"
161,0.3,"COc1nn(-c2ccc(NC(=O)OCc3ccccc3Cl)c(C)c2)c(=O)o1 [Example 62, 5-Methoxy-3-(3-methyl-4-(2-chlorobenzyloxycarbonylamino)phenyl)-3H-(1,3,4)oxadiazol-2-one]"
112,1,"COc1nn(-c2ccc(NC(=O)OCc3ccccc3)cc2C)c(=O)o1 [Example 65, 5-Methoxy-3-(2-methyl-4-benzyloxycarbonylaminophenyl)-3H-(1,3,4)oxadiazol-2-one]"
135,0.02,"CCCCCCCc1ccc(C(=O)Nc2ccc(-n3nc(OC)oc3=O)c(Cl)c2)cc1 [Example 71, 5-Methoxy-3-(2-chloro-4-(4-heptylbenzoylamino)phenyl)-3H-(1,3,4)oxadiazol-2-one]"
94,0.04,"CCOc1nn(-c2ccc(NC(=O)OCc3ccccc3)c(C)c2)c(=O)o1 [Example 74, 5-Ethoxy-3-(3-methyl-4-benzyloxycarbonylaminophenyl)-3H-(1,3,4)oxadiazol-2-one]"
